Consider 23 compounds from patent US9255100B2 (BAYER INTELLECTUAL PROPERTY GMBH, priority 2010, dated 2016).

This experiment concerns the target T1, N-terminally GST-tagged human full length recombinant Mps-1 kinase (Homo sapiens, UniProt P33981).
T1 construct: N-terminally GST-tagged human full length recombinant Mps-1 kinase; purchased Invitrogen, Karslruhe, Germany PV4071
T1 sequence (P33981 1-857): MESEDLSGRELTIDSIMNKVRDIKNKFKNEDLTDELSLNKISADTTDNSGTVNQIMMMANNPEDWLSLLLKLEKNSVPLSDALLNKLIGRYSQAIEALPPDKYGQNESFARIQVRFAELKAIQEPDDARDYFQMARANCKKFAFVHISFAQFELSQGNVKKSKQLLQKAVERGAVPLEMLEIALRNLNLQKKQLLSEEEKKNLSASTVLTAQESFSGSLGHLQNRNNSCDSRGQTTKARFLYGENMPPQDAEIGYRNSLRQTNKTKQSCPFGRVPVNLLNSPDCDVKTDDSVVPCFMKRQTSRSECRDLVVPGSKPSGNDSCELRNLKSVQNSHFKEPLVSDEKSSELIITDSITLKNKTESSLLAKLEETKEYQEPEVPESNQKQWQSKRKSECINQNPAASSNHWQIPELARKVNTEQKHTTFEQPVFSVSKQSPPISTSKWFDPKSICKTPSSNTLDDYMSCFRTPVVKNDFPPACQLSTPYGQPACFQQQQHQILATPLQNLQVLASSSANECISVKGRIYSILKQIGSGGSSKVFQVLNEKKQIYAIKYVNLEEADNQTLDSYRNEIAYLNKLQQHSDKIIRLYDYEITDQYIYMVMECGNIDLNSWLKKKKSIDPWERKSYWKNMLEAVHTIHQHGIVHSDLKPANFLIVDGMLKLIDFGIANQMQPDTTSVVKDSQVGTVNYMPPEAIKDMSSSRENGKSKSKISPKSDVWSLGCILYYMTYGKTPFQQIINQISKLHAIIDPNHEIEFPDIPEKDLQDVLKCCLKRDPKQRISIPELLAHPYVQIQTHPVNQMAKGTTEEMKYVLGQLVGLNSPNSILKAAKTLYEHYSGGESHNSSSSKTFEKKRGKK
Kind of experiment: Mps-1 kinase assay (TR-FRET). Format: biochemical. The conditions noted are these: Mps1 IC50 [nM], 10 μM ATP, 1 μM peptide substrate, 60 min at 22° C. As to the method: The human kinase Mps-1 phosphorylates a biotinylated substrate peptide. Detection of the phosphorylated product is achieved by time-resolved fluorescence resonance energy transfer (TR-FRET) from Europium-labelled anti-phospho-Serine/Threonine antibody as donor to streptavidin labelled with cross-linked allophycocyanin (SA-XLent) as acceptor. Compounds are tested for their inhibition of the kinase activity.
N-terminally GST-tagged human full length recombinant Mps-1 kinase (purchased from Invitrogen, Karslruhe, Germany, cat. no PV4071) was used. As substrate for the kinase reaction a biotinylated peptide of the amino-acid sequence […] (C-terminus in amide form, purchased from Biosynthan GmbH, Berlin) was used.
The concentration of Mps-1 in the assay was adjusted to the activity of the enzyme lot and was chosen appropriate to have the assay in the linear range, typical enzyme concentrations were in the range of about 1 nM (final conc. in the 5 μl assay volume).
The resulting mixture was incubated 1 h at 22° C. to allow the binding of the phosphorylated peptide to the anti-phospho(Ser/Thr)-Europium-antibody. Subsequently the amount of phosphorylated substrate was evaluated by measurement of the resonance energy transfer from the Europium-labelled anti-phospho(Ser/Thr) antibody to the Streptavidin-XLent.
A general note: In TR-FRET formats the signal depends on donor and acceptor labels being close together.
By IC50 is commonly meant the concentration that gives 50% inhibition. Regarding `Cc1cccc(Oc2cc(NCCC(F)(F)F)c3ncc(-c4ccc(C(=O)NC5CC5)c(C)c4)n3n2)c1` [Example 470, N-cyclopropyl-2-methyl-4-{6-(3-methylphenoxy)-8-[(3,3,3-trifluoro-propyl)amino]imidazo [1,2-b]pyridazin-3-yl} benzamide], the IC50 turned out to be 0.4 nM. For the compound `Cc1cc(-c2cnc3c(NCC(C)(C)O)cc(-c4c(C)noc4C)nn23)ccc1C(=O)NC1CC1` [Example 159, N-cyclopropyl-4-{6-(3,5-dimethyl-1,2-oxazol-4-yl)-8-[(2-hydroxy-2-methylpropyl)amino]imidazo[1,2-b]pyridazin-3-yl}-2-methylbenzamide], the IC50 was determined as 14.8 nM. Regarding `Cc1cc(-c2cnc3c(NCCC(F)(F)F)cc(Nc4ccc(Cl)cc4F)nn23)ccc1C(=O)NC1CC1` [Example 376, 4-{6-[(4-chloro-2-fluorophenyl)amino]-8-[(3,3,3-trifluoropropyl)amino]imidazo[1,2-b]pyridazin-3-yl}-N-cyclopropyl-2-methylbenzamide], the IC50 was found to be 0.2 nM. As for `Cc1cc(-c2cnc3c(NCC(C)(C)O)cc(Oc4ccc5ncccc5c4)nn23)ccc1C(=O)NC1CC1` [Example 168, N-cyclopropyl-4-{8-[(2-hydroxy-2-methylpropyl)amino]-6-(quinolin-6-yloxy)imidazo[1,2-b]pyridazin-3-yl}-2-methylbenzamide], the figure is 0.3 nM. On to `Cc1cc(-c2cnc3c(NCC(C)(C)O)cc(OCc4ccccc4)nn23)ccc1C(=O)NC1CC1` [Example 326, 4-{6-(benzyloxy)-8-[(2-hydroxy-2-methylpropyl)amino]imidazo[1,2-b]pyridazin-3-yl}-N-cyclo-propyl-2-methylbenzamide], for which the IC50 came out at 1.9 nM. As for `CNc1cc(N(C)c2ccccc2O)nn2c(-c3ccc(C(=O)NC4CC4)c(C)c3)cnc12` [Example 532, N-cyclopropyl-4-{6-[(2-hydroxyphenyl)(methyl)amino]-8-(methylamino)imidazo[1,2-b]pyridazin-3-yl}-2-methylbenzamide], the figure is 0.2 nM; as for `CNC(=O)c1ccc(-c2cc(NCC(C)C)c3ncc(-c4ccc(C(=O)NC5CC5)cc4)n3n2)cn1` [Example 149, 5-{3-[4-(Cyclopropylcarbamoyl)phenyl]-8-[(2-methylpropyl)amino]imidazo[1,2-b]pyridazin-6-yl}-N-methylpyridine-2-carboxamide], 2.2 nM. The value for `CC=Cc1cc(NCCC(F)(F)F)c2ncc(-c3ccc(C(=O)NC4CC4)c(C)c3)n2n1` (mixture of isomers) [Example 23, N-cyclopropyl-2-methyl-4-{6-[(1E/Z)-prop-1-en-1-yl]-8-[(3,3,3-trifluoropropyl)amino]imidazo[1,2-b]pyridazin-3-yl}benzamide] was 2.4 nM; that for `Cc1cc(-c2cnc3c(NCC(C)(C)O)cc(Oc4ccncc4)nn23)ccc1C(=O)NC1CC1` [Example 332, N-cyclopropyl-4-{8-[(2-hydroxy-2-methylpropyl)amino]-6-(pyridin-4-yl-oxy)imidazo[1,2-b]pyridazin-3-yl}-2-methylbenzamide] was 26.8 nM; that for `Cc1cc(-c2cnc3c(NCCCC(C)O)cc(-c4ccccc4CO)nn23)ccc1C(=O)NC1CC1` (racemic) [Example 342, (RS)-N-cyclopropyl-4-{6-[2-(hydroxy-methyl)phenyl]-8-[(4-hydroxy-pentyl)amino]imidazo[1,2-b]pyridazin-3-yl}-2-methylbenzamide] was 6.9 nM. In the case of `Cc1cc(-c2cnc3c(NCC(C)(C)O)cc(Oc4ccn[nH]4)nn23)ccc1C(=O)NC1CC1` [Example 414, N-cyclopropyl-4-{8-[(2-hydroxy-2-methylpropyl)amino]-6-(1H-pyrazol-5-yloxy)imidazo[1,2-b]pyridazin-3-yl}-2-methylbenzamide], the half-inhibitory concentration (IC50) was 6.7 nM. As for `Cc1cc(-c2cnc3c(NCC(C)(C)O)cc(Oc4ccc(F)c(Cl)c4)nn23)ccc1C(=O)NC1CC1` [Example 91, 4-{6-(3-Chloro-4-fluorophenoxy)-8-[(2-hydroxy-2-methylpropyl)amino]imidazo[1,2-b]pyridazin-3-yl}-N-cyclopropyl-2-methylbenzamide], the figure is 0.5 nM; as for `Cc1c[nH]c(Sc2cc(NCC(C)(C)O)c3ncc(-c4ccc(C(=O)NC5CC5)c(C)c4)n3n2)n1` [Example 317, N-cyclopropyl-4-{8-[(2-hydroxy-2-methylpropyl)amino]-6-[(4-methyl-1H-imidazol-2-yl)sulfanyl]imidazo[1,2-b]pyridazin-3-yl}-2-methylbenzamide], 7.4 nM; as for `C/C=C(\C)c1cc(NCC(C)(C)O)c2ncc(-c3ccc(C(=O)NC4CC4)cc3OC)n2n1` [Example 72, 4-{6-[(2E)-But-2-en-2-yl]-8-[(2-hydroxy-2-methylpropyl)amino]imidazo[1,2-b]pyridazin-3-yl}-N-cyclopropyl-3-methoxybenzamide], 44.4 nM. The value for `CC(C)CNc1cc(-c2cc3ccccc3o2)nn2c(-c3ccc(C(=O)NC4CC4)cc3)cnc12` [Example 127, 4-{6-(1-Benzofuran-2-yl)-8-[(2-methylpropyl)amino]imidazo[1,2-b]pyridazin-3-yl}-N-cyclopropylbenzamide] was 40 nM; that for `Cc1cc(-c2cnc3c(NCCC(F)(F)F)cc(Nc4ccc(F)c(O)c4)nn23)ccc1C(=O)NC1CC1` [Example 442, N-cyclopropyl-4-{6-[(4-fluoro-3-hydroxyphenyl)amino]-8-[(3,3,3-trifluoropropyl)amino]imidazo[1,2-b]pyridazin-3-yl}-2-methylbenzamide] was 0.1 nM.

Consider `CC(C)(O)CNc1cc(-c2ccc(F)cc2)nn2c(-c3ccc(-c4cnc(C5CC5)[nH]4)cc3)cnc12` [Example 8, 1-({3-[4-(2-Cyclopropyl-1H-imidazol-5-yl)phenyl]-6-(4-fluorophenyl)imidazo[1,2-b]pyridazin-8-yl}amino)-2-methylpropan-2-ol], for which the IC50 was 111 nM. The value for `Cc1cc(-c2cnc3c(NCC4CCSCC4)cc(Oc4ccc(F)cc4)nn23)ccc1C(=O)NC1CC1` [Example 290, N-cyclopropyl-4-{6-(4-fluorophenoxy)-8-[(tetrahydro-2H-thiopyran-4-ylmethyl)amino]imidazo[1,2-b]pyridazin-3-yl}-2-methylbenzamide] was 0.3 nM; that for `Cc1cc(-c2cnc3c(NCC(C)(C)O)cc(-c4ccc(F)cc4C)nn23)ccc1C(=O)NC1CC1` [Example 232, N-cyclopropyl-4-{6-(4-fluoro-2-methylphenyl)-8-[(2-hydroxy-2-methylpropyl)amino]imidazo[1,2-b]pyridazin-3-yl}-2-methylbenzamide] was 1 nM; that for `Cc1cc(-c2cnc3c(NCCC(F)(F)F)cc(Cc4cccc(Br)c4)nn23)ccc1C(=O)NC1CC1` [Example 485, 4-{6-(3-bromobenzyl)-8-[(3,3,3-trifluoropropyl)amino]imidazo [1,2-b]pyridazin-3-yl}-N-cyclo-propyl-2-methylbenzamide] was 0.4 nM. With `Cc1cc(-c2cnc3c(NCCC(C)(C)O)cc(-c4ccccc4CO)nn23)ccc1C(=O)NC1CC1` [Example 341, N-cyclopropyl-4-{8-[(3-hydroxy-3-methylbutyl)amino]-6-[2-(hydroxy-methyl)phenyl]imidazo[1,2-b]pyridazin-3-yl}-2-methylbenzamide], the IC50 came to 10.6 nM.

Consider `CCNC(=O)c1ccc(-c2cnc3c(NCCOC)cc(Oc4cc(F)ccc4C)nn23)cc1C` [Example 609, N-ethyl-4-{6-(5-fluoro-2-methylphenoxy)-8-[(2-methoxyethyl)a-mino]imidazo[1,2-b]pyridazin-3-yl}-2-methylbenzamide], for which the IC50 is 2.9 nM. As for `CNc1ccccc1Oc1cc(NC)c2ncc(-c3ccc(C(=O)NC4CC4)c(C)c3)n2n1` [Example 531, N-cyclopropyl-2-methyl-4-{8-(methylamino)-6-[2-(methylamino)phenoxy]imidazo[1,2-b]pyridazin-3-yl} benzamide], the IC50 came out at 14.8 nM.
